Test systems include PC-3 prostate; K-562 leukemia; HCC-2998 colon; SNB-19 CNS; IGROV1 ovarian; SN12C renal; LOX IMVI melanoma; RPMI-8226 leukemia; HCT-15 colon; SF-295 CNS.
Holding throughout (assay): inhibition of tumour cell growth, NCI panel, 48 h

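Grown in 96-well plates, cells were treated for 48 hours with each compound at five concentrations. Insufficient inhibition: endpoint recorded as highest concentration tested. GI50 marks 50% less growth. Definition used: TGI = concentration required for complete inhibition of growth.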

Consider `COCCN1CCN(Cc2ccc(-c3n[nH]c4c3C(=O)c3c(NC(=O)NN5CCOCC5)cccc3-4)cc2)CC1`, for which the GI50 in the experiment with PC-3 prostate is 0.023 µM; with K-562 leukemia, 0.032 µM; in the experiment on HCC-2998 colon, 0.0262 µM; in the experiment on SNB-19 CNS it was 0.0298 µM; with IGROV1 ovarian it was 0.0226 µM; in the experiment on SN12C renal, 0.0307 µM. Besides, the GI50 in the experiment on LOX IMVI melanoma is 0.0185 µM; in the experiment on RPMI-8226 leukemia it was 0.0288 µM; with HCT-15 colon, 0.117 µM; with SF-295 CNS, 0.0345 µM. Moreover, the TGI in the experiment with PC-3 prostate was more than 3.86 µM; in the experiment with K-562 leukemia, more than 10 µM; in the experiment on HCC-2998 colon it was 0.274 µM; with SNB-19 CNS, more than 10 µM; with IGROV1 ovarian, 1.19 µM; in the experiment with SN12C renal it was more than 10 µM. For the same compound, the TGI is 0.12 µM in the experiment on LOX IMVI melanoma, 0.0833 µM in the experiment on RPMI-8226 leukemia, 2 µM with HCT-15 colon and more than 10 µM with SF-295 CNS.

For the compound `O=C(O)CCc1c2ccc(=O)c(O)c-2oc2c(O)c(O)ccc12`, the TGI in the experiment on PC-3 prostate was more than 100 µM; in the experiment on K-562 leukemia, 55.2 µM; in the experiment on HCC-2998 colon, more than 100 µM; in the experiment with SNB-19 CNS, more than 100 µM; in the experiment with IGROV1 ovarian it was more than 100 µM; in the experiment on SN12C renal, 34.8 µM. Also, the TGI with LOX IMVI melanoma is 47.9 µM; in the experiment with RPMI-8226 leukemia, 75.3 µM; in the experiment with HCT-15 colon, more than 100 µM; with SF-295 CNS, 82.5 µM.

Take `O=c1c(Br)cc2c(-c3ccccc3)c3cc(Br)c(O)c(Br)c3oc-2c1Br`: the TGI in the experiment on PC-3 prostate, with K-562 leukemia, in the experiment with HCC-2998 colon, in the experiment with SNB-19 CNS, with IGROV1 ovarian and in the experiment on SN12C renal was more than 100 µM in each case. In addition, the TGI in the experiment on LOX IMVI melanoma, in the experiment with RPMI-8226 leukemia, with HCT-15 colon and in the experiment on SF-295 CNS was more than 100 µM in each case.

Regarding `COc1c(-c2ccc(O)c(O)c2)oc2c(O)c(O)cc(O)c2c1=O`, the TGI was more than 100 µM with PC-3 prostate; 46.4 µM in the experiment with K-562 leukemia; more than 100 µM with HCC-2998 colon; more than 100 µM in the experiment with SNB-19 CNS; 70.7 µM with IGROV1 ovarian; 31 µM in the experiment on SN12C renal. In addition, the TGI is 29.4 µM with LOX IMVI melanoma, more than 100 µM in the experiment with RPMI-8226 leukemia, more than 100 µM in the experiment on HCT-15 colon and more than 100 µM in the experiment with SF-295 CNS.

In the case of `CCCCNC(=O)c1cc(NCc2cc(O)ccc2O)ccc1O`, the GI50 in the experiment with PC-3 prostate is 10.3 µM; in the experiment with K-562 leukemia, 16.6 µM; in the experiment with HCC-2998 colon it was 17.6 µM; in the experiment on SNB-19 CNS, 41.4 µM; with IGROV1 ovarian, 26.1 µM; in the experiment with SN12C renal, 13.6 µM. In addition, the GI50 was 14.7 µM in the experiment with LOX IMVI melanoma, 1.76 µM with RPMI-8226 leukemia, 10.7 µM in the experiment with HCT-15 colon and 46.2 µM in the experiment on SF-295 CNS. Further, the TGI in the experiment with PC-3 prostate is 27.4 µM; in the experiment with K-562 leukemia, 75.2 µM; with HCC-2998 colon it was 35.5 µM; in the experiment with SNB-19 CNS, more than 100 µM; with IGROV1 ovarian, 62.7 µM; with SN12C renal it was 29.5 µM. For the same compound, the TGI in the experiment on LOX IMVI melanoma is 29.2 µM; with RPMI-8226 leukemia, 7.85 µM; with HCT-15 colon, 32.4 µM; in the experiment with SF-295 CNS, more than 100 µM.

Take `O=C1Nc2ccccc2/C1=C\c1nc(C2CCN(S(=O)(=O)c3ccc(F)cc3)CC2)n2ccccc12`: the GI50 in the experiment on PC-3 prostate is 4.98 µM; with K-562 leukemia it was more than 100 µM; with HCC-2998 colon, more than 100 µM; in the experiment on SNB-19 CNS, 3.99 µM; in the experiment on IGROV1 ovarian it was 2.69 µM; in the experiment on SN12C renal, 3.05 µM. In addition, the GI50 in the experiment with LOX IMVI melanoma was 2.58 µM; in the experiment on RPMI-8226 leukemia it was more than 100 µM; in the experiment on HCT-15 colon, more than 100 µM; in the experiment on SF-295 CNS, 2.25 µM. The TGI in the experiment with PC-3 prostate was more than 100 µM; in the experiment with K-562 leukemia, more than 100 µM; in the experiment with HCC-2998 colon, more than 100 µM; in the experiment on SNB-19 CNS it was 33.3 µM; in the experiment on IGROV1 ovarian, more than 100 µM; in the experiment with SN12C renal, more than 100 µM. Moreover, the TGI with LOX IMVI melanoma is more than 100 µM; in the experiment with RPMI-8226 leukemia it was more than 100 µM; with HCT-15 colon, more than 100 µM; in the experiment with SF-295 CNS, 11.2 µM.

On to `Cc1ccc(C(SCC(N)C(=O)O)(c2ccccc2)c2ccccc2)cc1` (stereo unspecified), for which the GI50 was 0.075 µM with PC-3 prostate; 0.0485 µM in the experiment with K-562 leukemia; 0.246 µM in the experiment on HCC-2998 colon; 0.125 µM in the experiment with SNB-19 CNS; 0.141 µM in the experiment on IGROV1 ovarian; 0.13 µM with SN12C renal. Further, the GI50 in the experiment with LOX IMVI melanoma was 0.247 µM; in the experiment on RPMI-8226 leukemia it was 0.0385 µM; with HCT-15 colon, 0.218 µM; in the experiment with SF-295 CNS, 0.0465 µM. Besides, the TGI in the experiment on PC-3 prostate is more than 100 µM; in the experiment on K-562 leukemia, more than 100 µM; in the experiment with HCC-2998 colon, 15.2 µM; in the experiment with SNB-19 CNS it was more than 100 µM; in the experiment on IGROV1 ovarian, more than 71.3 µM; in the experiment with SN12C renal, more than 65.9 µM. Further, the TGI was 21.6 µM in the experiment with LOX IMVI melanoma, more than 100 µM in the experiment on RPMI-8226 leukemia, more than 49.4 µM with HCT-15 colon and more than 100 µM in the experiment with SF-295 CNS.

Consider `COc1cc(-c2cc(/C=C/C(=O)c3ccc(Cl)c(Cl)c3)[nH]n2)cc(OC)c1OC`, for which the GI50 in the experiment on PC-3 prostate is 5.96 µM; in the experiment on K-562 leukemia, 4.96 µM; in the experiment on HCC-2998 colon, 9.56 µM; in the experiment with SNB-19 CNS it was 9.83 µM; with IGROV1 ovarian, 24 µM; in the experiment with SN12C renal, 13.7 µM. For the same compound, the GI50 in the experiment on LOX IMVI melanoma is 3.39 µM; in the experiment with RPMI-8226 leukemia, 0.538 µM; in the experiment with HCT-15 colon, 4.29 µM. Besides, the TGI is more than 100 µM in the experiment with PC-3 prostate; 64.4 µM in the experiment on K-562 leukemia; 31.4 µM with HCC-2998 colon; more than 100 µM in the experiment on SNB-19 CNS; more than 100 µM in the experiment on IGROV1 ovarian; more than 100 µM with SN12C renal. Moreover, the TGI in the experiment with LOX IMVI melanoma was determined as 16.4 µM; in the experiment with RPMI-8226 leukemia it was 6.73 µM.

For `CC(/C=C/c1ccccc1)=N\NC(N)=S`, the TGI is more than 100 µM with PC-3 prostate; 79.1 µM with HCC-2998 colon; 79.2 µM in the experiment on SNB-19 CNS; more than 100 µM with IGROV1 ovarian; more than 100 µM in the experiment with SN12C renal; more than 100 µM in the experiment with LOX IMVI melanoma. The TGI is 93.5 µM with RPMI-8226 leukemia, more than 100 µM in the experiment with HCT-15 colon and 61.2 µM in the experiment on SF-295 CNS.

The values above are taken from PubChem BioAssay (NCI).
